From patent publication US20230248657A1, “METHODS OF ADMINISTERING TASTE MASKED PHENYLBUTYRATE AND COMPOSITIONS THEREFOR” (Acer Therapeutics Inc., priority 2020, published 2023)

Test: Multi-dose plasma PK of PBA, GPB vs. BUPHENYL (NaPB), TID, fed
Assay type: in vivo, human
Conditions: GPB avg. dose 13.5 TID, N = 44, arithmetic mean

O=C(CCCc1ccccc1)OCC(COC(=O)CCCc1ccccc1)OC(=O)CCCc1ccccc1 [GPB, glycerol phenylbutyrate]
Plasma PBA AUC0-24: 443 µg·h/mL | Plasma PBA Cmax: 51.9 µg/mL | Plasma PBA Tmax: 8.0 h
